Reference: ChEMBL document CHEMBL4651402, “Screening of ~5500 FDA-approved drugs and clinical candidates for anti-SARS-CoV-2 activity” (2021)

Test system: SARS-CoV-2
Experiment: microbe, parasite or virus in culture
Conditions: Severe acute respiratory syndrome coronavirus 2, Vero C1008, 48 h

SMILES | IC50 [µM] | IC50 (read-out: pIC50 (converted)) [µM]
C[C@]12CCC(=O)C=C1CC[C@@H]1[C@@H]2[C@@H](O)C[C@@]2(C)[C@H]1CC[C@]2(O)C(=O)CO [HYDROCORTISONE] | > 20 | > 20
CCCC(=O)Nc1ccc(OCC(O)CNC(C)C)c(C(C)=O)c1 (centres undefined) [ACEBUTOLOL] | > 20 | > 20
CC(C)COC(=O)c1ccc(N)cc1 [ISOBUTAMBEN] | > 20 | > 20
NS(=O)(=O)c1cc2c(cc1Cl)NC(c1ccccc1)NC2=O (centres undefined) [FENQUIZONE] | > 20 | > 20
N#CC(O[C@@H]1O[C@H](CO[C@@H]2O[C@H](CO)[C@@H](O)[C@H](O)[C@H]2O)[C@@H](O)[C@H](O)[C@H]1O)c1ccccc1 (some centres undefined) [VITAMIN B17] | > 20 | > 20
O=C1CCN2C(=C1C(=O)NC1CCN(CCCn3c(=O)[nH]c4ccccc43)CC1)Nc1ccccc12 | > 20 | > 20
CN(C)C1CCc2[nH]c3ccccc3c2C1 (centres undefined) [CYCLINDOLE] | > 20 | > 20
O=C(NCC1CCOCC1)c1cnc(Nc2ccc(Cl)cc2Cl)nc1C(F)(F)F [GW842166X] | > 20 | > 20
C[C@]1(O)CC[C@H]2[C@@H]3CC[C@@]45O[C@]4(C)C(O)=C(C#N)C[C@]5(C)[C@H]3CC[C@@]21C [EPOSTANE] | > 20 | > 20
CCCN(CCC)C(=O)C1=Cc2ccc(-c3ccc(C(=O)N4CCCC4)cc3)cc2N=C(N)C1 [MOTOLIMOD] | > 20 | > 20
CC(=O)N(CC(O)CN(C(C)=O)c1c(I)c(C(=O)NCC(O)CO)c(I)c(C(=O)NCC(O)CO)c1I)c1c(I)c(C(=O)NCC(O)CO)c(I)c(C(=O)NCC(O)CO)c1I (centres undefined) [IODIXANOL] | > 20 | > 20
CC(=O)N[C@@H]1[C@@H](O[C@H](C)C(=O)O)[C@H](O)[C@@H](CO)O[C@@H]1O | > 20 | > 20
COc1ccc(CCN(C)CCCC(C#N)(c2ccc(OC)c(OC)c2)C(C)C)cc1OC (centres undefined) | > 20 | > 20
C[C@]12CC[C@H](O)CC1=CC[C@@H]1[C@@H]2CC[C@]2(C)C(n3cnc4ccccc43)=CC[C@@H]12 [GALETERONE] | > 20 | > 20
COc1ccc2c3c1O[C@H]1C(=O)CC[C@@]4(O)[C@@H](C2)N(C)CC[C@]314 [OXYCODONE] | > 20 | > 20
O=C(O)c1cc(O)ccc1O [GENTISIC ACID] | > 20 | > 20
O=C(Nc1ccc(Br)cc1)c1cc(Br)cc(Br)c1O [TRIBROMSALAN] | > 20 | > 20
CC(=O)OC1C([N+]2(C)CCCCC2)CC2C3CC[C@H]4C[C@H](OC(C)=O)C([N+]5(C)CCCCC5)CC4(C)C3CCC21C (some centres undefined) | > 20 | > 20
CCOC(N)=O | > 20 | > 20
CCn1cc(C(=O)O)c(=O)c2ccc(-c3ccncc3)cc21 [ROSOXACIN] | > 20 | > 20
CC[C@H](C)C(=O)O[C@H]1C[C@H](O)C=C2C=C[C@H](C)[C@H](CC[C@@H](O)C[C@@H](O)CC(=O)O)[C@H]21 [PRAVASTATIN] | > 20 | > 20

SMILES | IC50 [µM] | IC50 (read-out: pIC50 (converted)) [µM]
c1ccc2c(c1)CC[C@H](CNCCCNC1=NCCCN1)O2 | > 20 | > 20
CC1C(=O)OC2CCN3CC=C(COC(=O)C(C)(O)C1(C)O)C23 (centres undefined) | > 20 | > 20
CC(C)OC(=O)[C@H](C)N[P@@](=O)(OC[C@@]1(F)O[C@@H](n2ccc(=O)[nH]c2=O)[C@](C)(O)[C@@H]1O)Oc1ccccc1 | > 20 | > 20
CC(C)c1cc(C(=O)N2Cc3ccc(CN4CCN(C)CC4)cc3C2)c(O)cc1O [ONALESPIB] | > 20 | > 20
OC[C@H]1O[C@@H](Oc2ccc(O)cc2)[C@H](O)[C@@H](O)[C@@H]1O [ARBUTIN] | > 20 | > 20
CC(CC1c2ccccc2CCc2ccccc21)CN(C)C (centres undefined) [BUTRIPTYLINE] | > 20 | > 20
Cn1c(=O)c2nc(C3CCCC3)[nH]c2n(C)c1=O [8-CYCLOPENTYLTHEOPHYLLINE] | > 20 | > 20
O=C(O)Cc1ccccc1Nc1c(Cl)cccc1Cl [DICLOFENAC] | > 20 | > 20
CC(C)N(CCC(CCN1CCCCC1)(C(N)=O)c1ccccc1Cl)C(C)C (centres undefined) [DISOBUTAMIDE] | > 20 | > 20
Cn1cnc([N+](=O)[O-])c1Sc1nc(N)nc2[nH]cnc12 [THIAMIPRINE] | > 20 | > 20
CCCCc1cc2ccccc2c(OCCN(C)C)n1 [DIMETHISOQUIN] | > 20 | > 20
COc1ccc2c(c1)Sc1ccc(C(C)C(=O)O)cc1N2C (centres undefined) [PROTIZINIC ACID] | > 20 | > 20
CN(C)[C@@H]1C(O)=C(C(N)=O)C(=O)[C@@]2(O)C(O)=C3C(=O)c4c(O)cccc4[C@@](C)(O)[C@H]3C[C@@H]12 [TETRACYCLINE] | > 20 | > 20
C[C@@H]1CC[C@@]2(OC1)O[C@H]1C[C@H]3[C@@H]4CC=C5C[C@@H](O)CC[C@]5(C)[C@H]4CC[C@]3(C)[C@H]1[C@@H]2C [DISOGENIN] | > 20 | > 20
O=C1NOCC1/N=C/c1ccc(/C=N/C2CONC2=O)cc1 (centres undefined) [TERIZIDONE] | > 20 | > 20
NS(=O)(=O)c1cc(-c2nnn[nH]2)c(NCc2cccs2)cc1Cl [AZOSEMIDE] | > 20 | > 20
O=C(NCC12CC3CC(CC(C3)C1)C2)c1cc(CCCNCCCO)ccc1Cl [AZD9056] | > 20 | > 20
COC(=O)Nc1nc2ccc(C(=O)C3CC3)cc2[nH]1 [CYCLOBENDAZOLE] | > 20 | > 20
CCn1cc(C(=O)O)c(=O)c2ccc(C)nc21 [NALIDIXIC ACID] | > 20 | > 20
C=C(C)CC1(CC)C(=O)NC(=S)NC1=O | > 20 | > 20
O=S(=O)(O)c1ccc2ccccc2c1 | > 20 | > 20

SMILES | IC50 [µM] | IC50 (read-out: pIC50 (converted)) [µM]
CCN(CC)CCNC(=O)c1cc(Br)c(N)cc1OC [BROMOPRIDE] | > 20 | > 20
CC(=O)Nc1nnc(S(N)(=O)=O)s1 [ACETAZOLAMIDE] | > 20 | > 20
C=CC(=O)Nc1cccc(Oc2nc(Nc3ccc(N4CCN(C)CC4)c(F)c3)nc3[nH]ccc23)c1 [ABIVERTINIB] | > 20 | > 20
CCOc1ccc(NC(=O)C(C)O)cc1 (centres undefined) | > 20 | > 20
CCC(=O)C1(c2cccc(O)c2)CCN(C)CC1 [KETOBEMIDONE] | > 20 | > 20
C/C=C/C/C=C/CCC(=O)[C@H]1O[C@H]1C(N)=O [CERULENIN] | > 20 | > 20
CCc1[nH]c(=O)[nH]c1C(=O)c1ccncc1 [PIROXIMONE] | > 20 | > 20
Cc1c[nH]c2ccccc12 | > 20 | > 20
CC1(COc2ccc(CC3SC(=O)NC3=O)cc2)CCCCC1 (centres undefined) [CIGLITAZONE] | > 20 | > 20
CN[C@@H](C)[C@@H](O)c1ccccc1 [PSEUDOEPHEDRINE] | > 20 | > 20
Cc1cc(O)ccc1Cl [CHLOROCRESOL] | > 20 | > 20
COc1cc(C(=O)Nc2ccccc2CCC2CCCCN2C)ccc1O (centres undefined) [MODECAINIDE] | > 20 | > 20
CN(C)C1CC(c2ccccc2)c2ccccc21 (centres undefined) | > 20 | > 20
CCN(CCO)CCn1c(Cc2ccccc2)nc2c1c(=O)n(C)c(=O)n2C [BAMIFYLLINE] | > 20 | > 20
O=C(NCCN1CCOCC1)c1ccc(Cl)cc1 [MOCLOBEMIDE] | > 20 | > 20
C[C@H](NCc1ccc(OCc2ccccc2F)cc1)C(N)=O [RALFINAMIDE] | > 20 | > 20
COCCOC(=O)C1=C(C)NC(C)=C(C(=O)OC(C)C)C1c1cccc([N+](=O)[O-])c1 (centres undefined) [NIMODIPINE] | > 20 | > 20
CCOC(C(=O)N(C)CCN(C)CCc1ccccc1)(c1ccccc1)c1ccccc1 [CARBIPHENE] | > 20 | > 20
NCCCC(N)(C(=O)O)C(F)F (centres undefined) [EFLORNITHINE] | > 20 | > 20
CCC(=O)OC1C(OC2C(C)C(OC3CC(C)(OC)C(O)C(C)O3)C(C)C(=O)OC(CC)C(C)(O)C(O)C(C)C(=O)C(C)CC2(C)O)OC(C)CC1N(C)C (centres undefined) | > 20 | > 20
